“Also recorded” adds a separate entry of the source.
Experiment: Temporal dynamics of plasma and brain ketones after octanoic or decanoic acid ingestion
Format: in vivo, rat
Details: after ingestion (oral gavage); for plasma and brain β-HB (ketone) levels: kinetics
Protocol: Blood was drawn from the tail vein 7 days after initiation of treatment and trunk blood was collected during sacrifice. Blood was centrifuged and plasma samples were analysed for beta-hydroxybutyrate using a colorimetric kit (Cayman, US). For measurement of brain ketones, sample preparation involved liquid/liquid extraction of 50 μl brain tissue supernatant (pH 2), and extract derivatization with MSTFA (silylation). Analysis of BHB was performed via GC/MS, int. Standard 13C2-3-OH-But, m/z 233 (3-OH-But), m/z 118 (13C2-3-OH-But), with a calibration of 2-24 μg/ml (water); LOQ: 2 μg/ml, LOD: 0.7 μg/ml.
Control rats received oral gavage of sunflower oil, as described above. MCT8 and MCT10 received oral gavage of octanoic acid or decanoic acid, respectively. Rats were sacrificed and trunk blood, portal vein blood and brain, pancreas and liver were collected as indicated.

For `CCCCCCCC(=O)O` [octanoic acid], the “plasma and brain β-HB (ketone) levels” value was “more rapid increase; also recorded: rapid increase” and the plasma ketone levels (octanoic compared to decanoic acid) was “increased more rapidly”.
In the case of `CCCCCCCCCC(=O)O` [decanoic acid], the “plasma and brain β-HB (ketone) levels” value is reported as “longer-lasting increase; also recorded: prolonged increase”.

— US10596137B2, “Medium chain fatty acids and their triglycerides for treating anxiety” (NESTEC S.A., priority 2015, dated 2020)
